Measured values published in US20240109934A1, “ANTIBIOTICS WITH IMPROVED DRUG RESISTANCE PROFILE” (priority 2021, published 2024).
In brackets after ≈: the same amount, converted by molar mass. Read-outs that look alike come from different tables or passages of the source.

Tests used:
[1] = system: human foreskin fibroblasts (HFF-1); assay: Cell viability, Alamar Blue assay; assay type: cell-based; conditions: 72 h incubation, error SEM n = 2, read-out: IC50, Mammalian Toxicity in HFF-1
Experimental: Cell Culture. HFF-1 cells were obtained from ATCC. HFF-1 cells were grown in DMEM with 15% fetal bovine serum (Gemini Benchmark, Cat #100-106), 100 U/mL penicillin, and 100 μg/mL streptomycin. All cells were cultured at 37° C. in a 5% CO2 environment. Media was prepared by the University of Illinois School of Chemical Sciences Cell Media Facility.
Cell Viability. Cells were harvested, seeded in a 96 well-plate and allowed to adhere. Cells were treated with investigational compounds in DMSO (1% final concentration). Cells were incubated for 72 h before viability was assessed by the Alamar Blue Assay. Raptinal ([…]) was used as a dead control.

S. aureus 29213 = assay: MIC shift with 50% human serum; assay type: cell-based; conditions: S. aureus 29213, 50% human serum vs none
Experimental: Antimicrobial Susceptibility Tests. Susceptibility testing was performed in biological triplicate, using the micro-dilution broth method as outlined by the Clinical and Laboratory Standards Institute. […] Human serum (Ultrafiltrate, unspecified gender, 30K Dalton membrane filtered) was purchased from BioIVT (Hicksville, NY).

S. aureus ATCC 29213 [2] = assay: Resistance frequency, large inoculum method; assay type: cell-based
Experimental: Selection of Resistant Mutants. Resistant mutants were selected via the large inoculum method. Briefly, S. aureus ATCC 29213 (1×10^9 CFU) were plated on 100 mm plates of LB agar containing 4, 2, 1, 0.5, and 0.25 μg/mL.

S. aureus ATCC 29213 [3] = assay: MIC by micro-dilution broth method (CLSI); assay type: cell-based; conditions: for Antibacterial activity relative to FA: S. aureus ATCC 29213 MIC; for MIC: Staphylococcus aureus, ATCC29213, WT S. aureus ATCC 29213, n = 3, read-out: MIC Without Human Serum
[4] = Mouse liver microsome stability assay; assay type: in vitro ADME; conditions: 3 h at 37° C., LC-MS/MS, ± SEM of 3 biological replicates
Experimental: Mouse Liver Microsome Stability Assay. A mixture of PBS (pH 7.4), NADPH regenerating system solution A (Corning Life Sciences), and NADPH regenerating system solution B (Corning Life Sciences) was incubated at 37° C. in a shaking incubator for 5 min. Next, compound was added in DMSO (final concentration 50 μM, 0.5% DMSO) before ice-cold mouse liver microsomes (Thermo Fisher, male CD-1 mice, pooled) were added (final protein concentration of 1 mg/mL). An aliquot was immediately removed, quenched with an equal volume of 100 μM internal standard and centrifuged at 13,000 rcf for 3 min. The reactions were incubated at 37° C. in a shaking incubator for 3 h. A second aliquot was removed and quenched. Samples were analyzed with the 5500 QTRAP LC/MS/MS system (Sciex, Framingham, MA) in Metabolomics Lab of Roy J. Carver Biotechnology Center, University of Illinois at Urbana-Champaign. Software Analyst 1.6.2 was used for data acquisition and analysis. The 1200 series HPLC system (Agilent Technologies, Santa Clara, CA) includes a degasser, an autosampler, and a binary pump. The LC separation was performed on an Agilent Sb-Aq column (4.6×50 mm, […]) with mobile phase A (0.1% formic acid in water) and mobile phase B (0.1% formic acid in acetonitrile). The flow rate was 0.3 mL/min. The linear gradient was as follows: 0-3 min, 100% A; 10-16 min, 5% A; 16.5-22 min, 100% A. The autosampler was set at 10° C. The injection volume was 1 μL. Mass spectra were acquired under both positive (ion spray voltage was +5500 V) and negative (ion spray voltage was −4500 V) electrospray ionization (ESI). The source temperature was 450° C. The curtain gas, ion source gas 1, and ion source gas 2 were 33, 65, and 60 psi, respectively. Multiple reaction monitoring (MRM) was used for quantitation.

Mouse MTD / tolerability = conditions: mouse, in vivo, ip, 50 mg/kg
Experimental: The protocol was approved by the IACUC at the University of Illinois at Urbana-Champaign (Protocol Number: 16144 and 19181). In these studies, 10- to 12-week-old female C57BL/6 mice purchased from Charles River were used. The maximum tolerated dose (MTD) of single compound was determined first. […] All the mice were monitored for signs of toxicity for 2 weeks. For multiple doses, the compound was given by daily IP for 4 consecutive days, and mice were monitored for signs of toxicity for 1 month. MTD was the highest dosage with acceptable toxicity (e.g., <20% weight loss).

[5] = head-to-head with FA, 2×-32× the MIC

CC(=O)O[C@H]1C[C@@]2(C)[C@@H](C[C@@H](O)[C@H]3[C@@]4(C)CC[C@@H](O)[C@@H](C)[C@@H]4CC[C@@]32C)/C1=C(\CCC=C(Br)Br)C(=O)O [Compound 16, (Z)-2-((3R,4S,5S,8S,9S,10S,11R,13R,14S,16S)-16-acetoxy-3,11-dihydroxy-4,8,10,14-tetramethylhexadecahydro-17H-cyclopenta[a]phenanthren-17-ylidene)-6,6-dibromohex-5-enoic acid]
IC50 [1]: 75 ± 3 µM | IC50 ([1]; Homo sapiens, HFF-1, 72 h): > 50 µM | Fold Change Increase in MIC with 50% Human Serum (S. aureus 29213): 32X | Resistance frequency relative to FA (S. aureus ATCC 29213 [2]; [5]): worse resistance frequency relative to FA | Antibacterial activity relative to FA (S. aureus ATCC 29213 [3]): equipotent activity to FA | MIC (S. aureus ATCC 29213 [3]): 0.125 µg/mL (≈ 0.193 µM) | Metabolic Stability in Mouse Liver Microsomes (percent remaining) [4]: 88 ± 2%

CC(=O)O[C@H]1C[C@@]2(C)[C@@H](C[C@@H](O)[C@H]3[C@@]4(C)CC[C@@H](O)[C@@H](C)[C@@H]4CC[C@@]32C)/C1=C(\CCC=C1CCCCC1)C(=O)O [Compound 26, (Z)-2-((3R,4S,5S,8S,9S,10S,11R,13R,14S,16S)-16-acetoxy-3,11-dihydroxy-4,8,10,14-tetramethylhexadecahydro-17H-cyclopenta[a]phenanthren-17-ylidene)-5-cyclohexylidenepentanoic acid]
IC50 [1]: 53 ± 4 µM | IC50 ([1]; Homo sapiens, HFF-1, 72 h): > 50 µM | Fold Change Increase in MIC with 50% Human Serum (S. aureus 29213): 16X | Resistance frequency relative to FA (S. aureus ATCC 29213 [2]; [5]): improvement in resistance frequency relative to FA | Resistance frequency relative to FA (S. aureus ATCC 29213 [2]; only at 32× the MIC): improvement | Antibacterial activity relative to FA (S. aureus ATCC 29213 [3]): equipotent activity to FA | MIC (S. aureus ATCC 29213 [3]): 0.125 µg/mL (≈ 0.225 µM) | Metabolic Stability in Mouse Liver Microsomes (percent remaining) [4]: 61 ± 1%

CC(=O)O[C@H]1C[C@@]2(C)[C@@H](C[C@@H](O)[C@H]3[C@@]4(C)CC[C@@H](O)[C@@H](C)[C@@H]4CC[C@@]32C)/C1=C(\CCC=C(C)C)C(=O)O [Sodium fusidate, reference compound]
Tolerability (Mouse MTD / tolerability): well tolerated
